The molecules below were run against AMPK (assay: AMPK activation, enzyme-linked immunosorbent assay). Settings: compounds of Table 1 (Table 6).
Format: biochemical
Method: Compounds of Table 1 were assayed for their ability to activate AMPK using an enzyme-linked immunosorbent assay.
Compounds of Table 2 were assayed for their ability to activate AMPK using an enzyme-linked immunosorbent assay.
Compounds of Table 3 were assayed for their ability to activate AMPK using an enzyme-linked immunosorbent assay.
Compounds of Table 4 were assayed for their ability to activate AMPK using an enzyme-linked immunosorbent assay.
Compounds of Table 5 were assayed for their ability to activate AMPK using an enzyme-linked immunosorbent assay.
With `O=C(N[C@H]1CCN(Cc2ccc(F)cc2)C1)c1ccc(OC2CCN(c3ccc(C(F)(F)F)cc3)CC2)cn1` [1-32, (S)-N-(1-(4-fluorobenzyl)pyrrolidin-3-yl)-5-(1-(4-(trifluoromethyl)phenyl)piperidin-4-yloxy)picolinamide] the EC50 was 100 to 500 nM. `CN(C)c1ccc(CN2CCC(NC(=O)c3ccc(OC4CCN(c5ccc(C(F)(F)F)cc5)CC4)cn3)CC2)cc1` [1-39, N-(1-(4-(dimethylamino)benzyl)piperidin-4-yl)-5-(1-(4-(trifluoromethyl)phenyl)piperidin-4-yloxy)picolinamide] was tested, and the EC50 was 100 to 500 nM. `N#Cc1cccc(CN2CCC(NS(=O)(=O)c3ccc(OC4CCN(c5ccc(C(F)(F)F)cc5)CC4)nc3)CC2)c1` [1-57, N-(1-(3-cyanobenzyl)piperidin-4-yl)-6-(1-(4-(trifluoromethyl)phenyl)piperidin-4-yloxy)pyridine-3-sulfonamide] showed an EC50 of 500 to 1000 nM. In the case of `O=C(NC1CCN(C(=O)c2ccncc2)CC1)c1cc2ccc(OC3CCN(c4ccc(C(F)(F)F)cc4)CC3)cc2o1` [1-112, N-(1-isonicotinoylpiperidin-4-yl)-6-(1-(4-(trifluoromethyl)phenyl)piperidin-4-yloxy)benzofuran-2-carboxamide], the EC50 is reported as < 100 nM. With `O=C(NCCCNCc1ccncc1)c1ccc(OC2CCN(c3ccc(C(F)(F)F)cc3)CC2)cn1` [1-50, N-(3-(pyridin-4-ylmethylamino)propyl)-5-(1-(4-(trifluoromethyl)phenyl)piperidin-4-yloxy)picolinamide] the EC50 was 1000 to 5000 nM. `O=C(NC1CCN(Cc2cncnc2)CC1)c1ccc(OC2CCN(c3ccc(C(F)(F)F)cc3)CC2)cn1` [1-44, N-(1-(pyrimidin-5-ylmethyl)piperidin-4-yl)-5-(1-(4-(trifluoromethyl)phenyl)piperidin-4-yloxy)picolinamide] was tested, and the EC50 was 100 to 500 nM. With `Cc1c(C(=O)NC2CCN(Cc3cccnc3)CC2)oc2cc(OC3CCN(c4ccc(C(F)(F)F)cc4)CC3)ccc12` [1-69, 3-methyl-N-(1-(pyridin-3-ylmethyl)piperidin-4-yl)-6-(1-(4-(trifluoromethyl)phenyl)piperidin-4-yloxy)benzofuran-2-carboxamide] the EC50 was < 100 nM. For `O=C(NC1CCN(Cc2ccncc2)CC1)c1cc2ccc(OC3CCN(c4ccc(OC(F)(F)F)cc4)CC3)cc2o1` [1-88, N-(1-(pyridin-4-ylmethyl)piperidin-4-yl)-6-(1-(4-(trifluoromethoxy)phenyl)piperidin-4-yloxy)benzofuran-2-carboxamide], the EC50 was < 100 nM. Molecule `O=C(N[C@@H]1CCN(Cc2ccc(F)cc2)C1)c1ccc(OC2CCN(c3ccc(C(F)(F)F)cc3)CC2)cn1` [1-34, (R)-N-(1-(4-fluorobenzyl)pyrrolidin-3-yl)-5-(1-(4-(trifluoromethyl)phenyl)piperidin-4-yloxy)picolinamide] has an EC50 of 500 to 1000 nM. With `COC(=O)c1ccc(CN2CCC(NC(=O)c3ccc(OC4CCN(c5ccc(C(F)(F)F)cc5)CC4)nc3)CC2)cc1` [1-45, methyl 4-((4-(6-(1-(4-(trifluoromethyl)phenyl)piperidin-4-yloxy)nicotinamido)piperidin-1-yl)methyl)benzoate] the EC50 was > 10000 nM.

Same assay, conditions: compounds of Table 2 (Table 7)
Work on `CC(C)(C)OC(=O)N1CCC(NC(=O)c2ccc3[nH]c4c(c3c2)CN(Cc2ccc(C(F)(F)F)cc2)CC4)CC1` [2-6, tert-butyl 4-(2-(4-(trifluoromethyl)benzyl)-2,3,4,5-tetrahydro-1H-pyrido[4,3-b]indole-8-carboxamido) piperidine-1-carboxylate] yielded an EC50 of 500 to 1000 nM. In the case of `O=C(NC1CCN(Cc2ccccc2)CC1)c1ccc2[nH]c3c(c2c1)CN(S(=O)(=O)c1ccc(C(F)(F)F)cc1)CC3` [2-19, N-(1-benzylpiperidin-4-yl)-2-(4-(trifluoromethyl)phenylsulfonyl)-2,3,4,5 - tetrahydro-1H-pyrido[4,3-b]indole-8-carboxamide], the EC50 is reported as > 100000 nM. In the case of `O=C(NC1CCN(Cc2ccc(C(F)(F)F)cc2)CC1)c1ccc2[nH]c3c(c2c1)CN(Cc1ccc(F)cc1)CC3` [2-10, N-(1-(4-trifluoro-methylbenzyl)piperidin-4-yl)-2-(4-fluorobenzyl)-2,3,4,5-tetrahydro-1H-pyrido[4,3-b] indole-8-carboxamide], the EC50 is reported as 500 to 1000 nM. `O=C(NC1CCN(Cc2cccnc2)CC1)c1ccc2[nH]c3c(c2c1)CN(Cc1ccc(C(F)(F)F)cc1)CC3` [2-11, N-(1-(pyridin-3-ylmethyl)piperidin-4-yl)-2-(4-(trifluoromethyl)benzyl)-2,3,4,5-tetrahydro-1H-pyrido [4,3-b]indole-8-carboxamide] was tested, and the EC50 was < 500 nM. `O=C(NC1CCN(Cc2ccc(C(F)(F)F)cc2)CC1)c1ccc2[nH]c3c(c2c1)CN(Cc1ccccc1)CC3` [2-5, 2-benzyl-N-(1-(4-trifluoromethylbenzyl)piperidin-4-yl)-2,3,4,5-tetrahydro-1H-pyrido[4,3-b]indole-8-carboxamide] showed an EC50 of 1000 to 5000 nM. For `N#Cc1ccc(NC(=O)N2CCC(NC(=O)c3ccc4[nH]c5c(c4c3)CN(Cc3ccc(C(F)(F)F)cc3)CC5)CC2)cc1` [2-27, N-(1-(4-cyanophenyl-carbamoyl)piperidin-4-yl)-2-(4-(trifluoromethyl)benzyl)-2,3,4,5-tetrahydro-1H-pyrido [4,3-b]indole-8-carboxamide], the EC50 was 1000 to 5000 nM. With `N#Cc1ccc(CN2CCC(NC(=O)c3ccc4[nH]c5c(c4c3)CN(Cc3ccc(C(F)(F)F)cc3)CC5)CC2)cc1` [2-12, N-(1-(4-cyanobenzyl)piperidin-4-yl)-2-(4-(trifluoromethyl)benzyl)-2,3,4,5-tetrahydro-1H-pyrido [4,3-b]indole-8-carboxamide] the EC50 was < 500 nM. With `O=C(NC1CCN(S(=O)(=O)c2ccc(C(F)(F)F)cc2)CC1)c1ccc2[nH]c3c(c2c1)CN(Cc1ccc(C(F)(F)F)cc1)CC3` [2-23, 2-(4-(trifluoromethyl)benzyl)-N-(1-(4-(trifluoromethyl)phenylsulfonyl)piperidin-4-yl)-2,3,4,5-tetrahydro-1H-pyrido[4,3-b]indole-8-carboxamide] the EC50 was 1000 to 5000 nM.

Same assay, conditions: compounds of Table 3 (Table 8)
`N#Cc1ccc(CN2CCc3ccc(C(=O)NC4CCN(Cc5cccnc5)CC4)cc3C2)cc1` [3-38, 2-(4-cyanobenzyl)-N-(1-(pyridin-3-ylmethyl)piperidin-4-yl)-1,2,3,4-tetrahydroisoquinoline-7-carboxamide] was tested, and the EC50 was < 100 nM. `N#Cc1ccc(C(=O)N2CCC(NC(=O)c3nc4ccc(OC5CCN(c6ccc(C(F)(F)F)cc6)CC5)cc4o3)CC2)cc1` [3-6, N-(1-(4-cyanobenzoyl)piperidin-4-yl)-6-(1-(4-(trifluoromethyl)phenyl)piperidin-4-yloxy)benzo[d]oxazole-2-carboxamide] was tested, and the EC50 was < 100 nM. Work on `N#Cc1ccc(CN2CC3CC2CN3C(=O)c2nc3ccc(OC4CCN(c5ccc(C(F)(F)F)cc5)CC4)cc3o2)cc1` (centres unmarked) [3-10, 4-((5-(6-(1-(4-(trifluoromethyl)phenyl)piperidin-4-yloxy)benzo[d]oxazole-2-carbonyl)-2,5-diazabicyclo[2.2.1]heptan-2-yl)methyl)benzonitrile] yielded an EC50 of 100 to 1000 nM. For `N#Cc1ccc(CN2CCC(NC(=O)c3ccc(C(=O)N4CCN(c5ccc(Cl)cc5)CC4)cc3)CC2)cc1` [3-29, 4-(4-(4-chlorophenyl)piperazine-1-carbonyl)-N-(1-(4-cyanobenzyl)piperidin-4-yl)benzamide], the EC50 was 10000 to 100000 nM. For `N#Cc1ccc(CN2CCC(NC(=O)c3ccc4c(c3)CN(Cc3ccc(C#N)cc3)CC4)CC2)cc1` [3-37, 2-(4-cyanobenzyl)-N-(1-(4-cyanobenzyl)piperidin-4-yl)-1,2,3,4-tetrahydroisoquinoline-7-carboxamide], the EC50 was < 100 nM. `N#Cc1ccc(CN2CCC(NC(=O)c3ccc(C(=O)NC4CCN(Cc5ccccc5)CC4)cc3)CC2)cc1` [3-33, N^1-(1-benzylpiperidin-4-yl)-N^4-(1-(4-cyanobenzyl)piperidin-4-yl)terephthalamide] was tested, and the EC50 was 10000 to 100000 nM. With `N#Cc1ccc(CN2CCC(NC(=O)c3ccc4c(c3)CN(Cc3ccc(F)cc3)CC4)CC2)cc1` [3-34, N-(1-(4-cyanobenzyl)piperidin-4-yl)-2-(4-fluorobenzyl)-1,2,3,4-tetrahydroisoquinoline-7-carboxamide] the EC50 was < 100 nM.

Same assay, conditions: compounds of Table 4 (Table 9)
In the case of `N#Cc1ccc(CN2CCC(NC(=O)c3ccc(C(=O)N4CCN(Cc5ccc(F)cc5)CC4)cn3)CC2)cc1` [4-2, N-(1-(4-cyanobenzyl)piperidin-4-yl)-5-(4-(4-fluorobenzyl)piperazine-1-carbonyl)picolinamide], the EC50 is reported as < 500 nM. `N#Cc1ccc(CN2CC[C@H](NC(=O)c3ccc(C(=O)N4CCN(c5ccc(Cl)cc5)CC4)cn3)C2)cc1` [4-6, (S)-5-(4-(4-chlorophenyl)piperazine-1-carbonyl)-N-(1-(4-cyanobenzyl)pyrrolidin-3-yl)picolinamide] gave an EC50 of 500 to 1000 nM.

Same assay, conditions: compounds of Table 5 (Table 10)
In the case of `CC(C)(C)OC(=O)N1CCC(Oc2ccc(C(=O)NC3CCN(Cc4ccccc4)CC3)cc2Cl)CC1` [5-90, tert-butyl 4-(4-(1-benzylpiperidin-4-ylcarbamoyl)-2-chlorophenoxy)piperidine-1-carboxylate], the EC50 is reported as 1000 to 10000 nM. With `COc1cc(C(=O)NC2CCN(Cc3ccccc3)CC2)ccc1OC1CCN(S(C)(=O)=O)CC1` [5-9, N-(1-benzylpiperidin-4-yl)-3-methoxy-4-(1-(methylsulfonyl)piperidin-4-yloxy)benzamide] the EC50 was 20000 to 50000 nM. In the case of `O=C(NC1CCN(Cc2ccccc2)CC1)c1ccc(OC2CCN(Cc3ccccc3)CC2)c(Cl)c1` [5-14, N-(1-benzylpiperidin-4-yl)-4-(1-benzylpiperidin-4-yloxy)-3-chlorobenzamide], the EC50 is reported as < 1000 nM. `CC(C)(C)C(=O)N1CCC(NC(=O)c2ccc(OC3CCN(c4ccc(C(F)(F)F)cc4)CC3)c(F)c2)CC1` [5-30, 3-fluoro-N-(1-pivaloylpiperidin-4-yl)-4-(1-(4-(trifluoromethyl)phenyl)piperidin-4-yloxy)benzamide] was tested, and the EC50 was < 1000 nM. For `O=C(NCCCN1CCOCC1)c1ccc(OC2CCN(Cc3ccc(Cl)cc3)CC2)cc1` [5-100, 4-(1-(4-chlorobenzyl)piperidin-4-yloxy)-N-(3-morpholinopropyl)benzamide], the EC50 was 1000 to 10000 nM.

Reference: patent publication US9511058B2, “Methods for using carboxamide, sulfonamide and amine compounds” (Rigel Pharmaceuticals, Inc., priority 2010, dated 2016)
